Measurements reported in patent US11090293B2 (Ovid Therapeutics Inc., priority 2018, dated 2021).
Where two headings read alike, the source gives them in different places.

Experiments:
[1] = human, in vivo, po
[2] = human, in vivo

| SMILES | residual effect on Choice Reaction Time and Critical Flicker Fusion [1] | CLR ([2]; both, iv, 10 mg) [mL/min] | half-life (t½) ([2]; both, po) [h] | CLR ([2]; both, po, 2.5 mg) [mL/min] | AUC0-∞ ([2]; both, po, 5 mg) [ng·h/mL] | CLR ([2]; both, po, 5 mg) [mL/min] | AUC0-∞ ([2]; both, po, 10 mg) [ng·h/mL] | AUC0-∞ ([2]; both, po, 15 mg) [ng·h/mL] | CLR ([2]; both, po, 15 mg) [mL/min] | AUC0-∞ ([2]; both, po, 20 mg) [ng·h/mL] | CLR ([2]; both, po, 20 mg) [mL/min] | CL/F (CL for 10 mg IV) ([2]; iv, 10 mg) [mL/min] | Slope (90% CI) of AUC0-∞, dose proportionality assessment ([2]; po) |
| --- | --- | --- | --- | --- | --- | --- | --- | --- | --- | --- | --- | --- | --- |
| CCN(CC)CCN1C(=O)CN=C(c2ccccc2F)c2cc(Cl)ccc21 [Flurazepam] | showed significant effect | – | – | – | – | – | – | – | – | – | – | – | – |
| Oc1noc2c1CCNC2 [gaboxadol, 4,5,6,7-tetrahydroisoxazolo [5,4-c]pyridine-3-ol] | did not show residual effect | 208 | 1.5 | 196 | 171 | 222 | 346 | 539 | 234 | 669 | 265 | 438 | 0.98 (0.95, 1.01) |
